Measurements published in patent publication US5041448A, “(4-piperidinylmethyl and -hetero) purines” (Janssen Pharmaceutica N.V., priority 1985, dated 1991).

These compounds were tested on compound 48/80-induced lethality in rats (assay: Protection of rats from compound 48/80-induced lethality). Conditions: Rattus norvegicus, 4 h, male Wistar rats; s.c. or oral, one hour before 0.5 mg/kg i.v. compound 48/80; ED50 = dose protecting 50% of animals; survival after 4 hours; read-out: compound 48/80 lethality test in rats-ED50.
Format: in vivo, rat (male, inbred Wistar strain)
Text: Protection of rats from compound 48/80-induced lethality.
Compound 48/80, a mixture of oligomers obtained by condensation of 4-methoxy-N-methylbenzeneethanamine and formaldehyde has been described as a potent histamine releasing agent (Int. Arch. Allergy, 13, 336 (1958)). The protection from compound 48/80-induced lethal circulatory collapse appears to be a simple way of evaluating quantitatively the antihistaminic activity of test compounds. Male rats of an inbred Wistar strain, weighing 240-260 g were used in the experiment. After overnight starvation the rats were transferred to conditioned laboratories (temp.=21±1° C., relative humidity=65±5%). The rats were treated subcutaneously or orally with a test compound or with the solvent (NaCl solution, 0.9%). One hour after treatment there was injected intravenously compound 48/80, freshly dissolved in water, at a dose of 0.5 mg/kg (0.2 ml/100 g of body weight). In control experiments, wherein 250 solvent-treated animals were injected with the standard dose of compound 48/80, not more than 2.8% of the animals survived after 4 hours. Survival after 4 hours is therefore considered to be a safe criterion of a protective effect of drug administration.
Said ED50 -values are the values in mg/kg body weight at which the tested compounds protect 50% of the tested animals against compound 48/80-induced lethality.

In order of rising ED50:
1. Cc1ccc(Cn2c(NC3CCN(CC4COc5ccccc5O4)CC3)nc3cncnc32)o1 (stereo not shown) [Compound 61, N-[1-[(2,3-dihydro-1,4-benzodioxin-2-yl)methyl]-4-piperidinyl]-9-[(5-methyl-2-furanyl)methyl]-9H-purin-8-amine]  0.01 mg/kg
2. COc1ccc(CCN2CCC(Nc3nc4cncnc4n3Cc3ccccn3)CC2)cc1 [Compound 74, N-[1-[2-(4-methoxyphenyl)ethyl]-4-piperidinyl]-9-(2-pyridinylmethyl)-9H-purin-8-amine]  0.01 mg/kg
3. Fc1ccc(Cn2c(NC3CCN(CCc4ccccn4)CC3)nc3cncnc32)cc1 [Compound 141, 9-[(4-fluorophenyl)methyl]-N-[1-[2-(2-pyridinyl)ethyl]-4-piperidinyl]-9H-purin-8-amine]  0.01 mg/kg
4. Cc1ccc(Cn2c(NC3CCN(CCc4ccccn4)CC3)nc3cncnc32)o1 [Compound 145, 9-[(5-methyl-2-furanyl)methyl]-N-[1-[2-(2-pyridinyl)ethyl]-4a-piperidinyl]-9H-purin-8-amine]  0.01 mg/kg
5. COc1ccc(CCN2CCC(Nc3nc4cncnc4n3Cc3ccco3)CC2)cc1 [Compound 76]  0.02 mg/kg
6. COc1ccc(CCN2CCC(Nc3nc4cncnc4n3Cc3cccs3)CC2)cc1 [Compound 77]  0.02 mg/kg
7. Cc1nc2ccccn2c(=O)c1CCN1CCC(Nc2nc3cncnc3n2Cc2ccco2)CC1 [Compound 88]  0.02 mg/kg
8. Cc1nc2ccccn2c(=O)c1CCN1CCC(Nc2nc3cncnc3n2Cc2ccccc2)CC1 [Compound 100]  0.02 mg/kg
9. Cc1ccc(Cn2c(NC3CCN(CCc4cc5ccccc5oc4=O)CC3)nc3cncnc32)o1 [Compound 107]  0.02 mg/kg
10. c1ccc(CCN2CCC(Nc3nc4cncnc4n3Cc3ccco3)CC2)nc1 [Compound 142, 9-(2-furanylmethyl)-N-[1-[2-(2-pyridinyl)ethyl]-4-piperidinyl]-9H-purin-8-amine]  0.02 mg/kg
11. c1ccc(CCN2CCC(Nc3nc4cncnc4n3Cc3cccs3)CC2)nc1 [Compound 143, N-[1-[2-(2-pyridinyl)ethyl]-4-piperidinyl]-9-(2-thienylmethyl)-9H-purin-8-amine]  0.02 mg/kg
12. c1cnc(NCCN2CCC(Nc3nc4cncnc4n3Cc3ccco3)CC2)nc1 [Compound 165]  0.02 mg/kg
13. Cc1ccc(Cn2c(NC3CCN(CCNc4ncccn4)CC3)nc3cncnc32)o1 [Compound 168]  0.02 mg/kg
14. COc1ccc(CCN2CCC(Cc3nc4ncnc(O)c4n3Cc3ccc(F)cc3)CC2)cc1 [Compound 62, 7-[(4-fluorophenyl)methyl]-8-[[1-[2-(4-methoxyphenyl)ethyl]-4-piperidinyl]methyl]-7H-purin-6-ol]  0.04 mg/kg
15. COc1ccc(CCN2CCC(Nc3nc4ncncc4n3Cc3ccc(F)cc3)CC2)cc1 [Compound 78]  0.04 mg/kg
16. COc1ccc(CCN2CCC(Nc3nc4cncnc4n3Cc3ccc(C)o3)CC2)cc1 [Compound 79]  0.04 mg/kg
17. O=c1oc2ccccc2cc1CCN1CCC(Nc2nc3cncnc3n2Cc2ccco2)CC1 [Compound 104]  0.04 mg/kg
18. O=C(O)/C=C/C(=O)O.O=C(O)/C=C/C(=O)O.O=c1[nH]c2ccccc2n1CCCN1CCC(Cc2nc3cncnc3n2Cc2ccc(F)cc2)CC1 [Compound 114, 1-[3-[4-[[9-[(4-fluorophenyl)methyl]-9H-purine-8-yl]methyl]-1-piperidinyl]-propyl]-1,3-dihydro-2H-benzimidazol-2-one (E)-2-butenedioate(1:2)]  0.04 mg/kg
19. c1ccc(CCN2CCC(Nc3nc4cncnc4n3Cc3ccccn3)CC2)nc1 [Compound 144, N-[1-[2-(2-pyridinyl)ethyl]-4-piperidinyl]-9-(2-pyridinylmethyl)-9H-purin-8-amine]  0.04 mg/kg
20. Fc1ccc(Cn2c(NC3CCN(CCNc4nccs4)CC3)nc3cncnc32)cc1 [Compound 172, 9-[(4-fluorophenyl)methyl]-N-[1-[2-(2-thiazolylamino)ethyl)-4-piperidinyl]-9H-purin-8-amine]  0.04 mg/kg
21. Fc1ccc(Cn2c(NC3CCN(CCNc4nc5cnccc5[nH]4)CC3)nc3cncnc32)cc1 [Compound 183, 9-[(4-fluorophenyl)methyl]-N-[1-[2-[(1H-imidazo[4,5-c]pyridin-2-yl)amino]ethyl]-4-piperidinyl]-9H-purin-8-amine (E)-2-butenedioate(1:3) monohydrate]  0.04 mg/kg
22. Cl.Cl.O.O.c1coc(Cn2c(NC3CCN(CC4COc5ccccc5O4)CC3)nc3cncnc32)c1 (stereo not shown) [Compound 60, N-[1-[(2,3-dihydro-1,4-benzodioxin-2-yl)methyl]-4-piperidinyl]-9-(2-furanyl-methyl)-9H-purin-8-amine dihydrochloride dihydrate]  0.08 mg/kg
23. COc1ccc(CCN2CCC(Oc3nc4cncnc4n3Cc3ccc(F)cc3)CC2)cc1 [Compound 64]  0.08 mg/kg
24. COc1ccc(CCN2CCC(Nc3nc4cncnc4n3Cc3ccc(F)cc3)CC2)cc1 [Compound 75]  0.08 mg/kg
25. COc1ccc(CCN2CCC(Nc3nc4cncnc4n3Cc3ccccc3)CC2)cc1 [Compound 83]  0.08 mg/kg
26. Cc1nc2ccccn2c(=O)c1CCN1CCC(Nc2nc3cncnc3n2Cc2cnccn2)CC1 [Compound 87, 2-methyl-3-[2-[4-[[9-(2-pyrazinylmethyl)-9H-purin-8-yl]amino]-1-piperidinyl]-ethyl]-4H-pyrido[1,2-a]pyrimidin-4-one]  0.08 mg/kg
27. Cc1nc2ccccn2c(=O)c1CCN1CCC(Nc2nc3cncnc3n2Cc2cccs2)CC1 [Compound 89]  0.08 mg/kg
28. O=c1oc2ccccc2cc1CCN1CCC(Nc2nc3cncnc3n2Cc2ccccn2)CC1 [Compound 106]  0.08 mg/kg
29. O=c1[nH]c2ccccc2n1CCN1CCC(Nc2nc3cncnc3n2Cc2ccc(F)cc2)CC1 [Compound 115, 1-[2-[4-[[9-[(4-fluorophenyl)methyl]-9H-puri-8-yl]amino]-1-piperidinyl]ethyl]-1,3-dihydro-2H-benzimidazol-2-one]  0.08 mg/kg
30. c1cnc(NCCN2CCC(Nc3nc4cncnc4n3Cc3cccs3)CC2)nc1 [Compound 167]  0.08 mg/kg
31. COc1ncnc2c1nc(CC1CCN(CCNc3ncccn3)CC1)n2Cc1ccc(F)cc1 [Compound 169]  0.08 mg/kg
32. Fc1ccc(Cn2c(CC3CCN(CCNc4ncccn4)CC3)nc3cncnc32)cc1 [Compound 171]  0.08 mg/kg

Same assay, conditions: male Wistar rats; s.c. or oral, one hour before 0.5 mg/kg i.v. compound 48/80; ED50 = dose protecting 50% of animals; survival after 4 hours

For “9-(2-furanylmethyl)-N-[1-[4-[(2-thiazolyl)amino]pentyl]-4-piperidinyl]-9H-purin-8-amine [Compound 173]”, the “compound 48/80 lethality test in rats-ED50” value was 0.08 mg/kg body weight.

Same assay, conditions: male Wistar rats; s.c. or oral, one hour before 0.5 mg/kg i.v. compound 48/80; ED50 = dose protecting 50% of animals; survival after 4 hours; 240 min

In the case of COc1ccc(CCN2CCC(Nc3nc4cncnc4n3Cc3ccc(F)cc3)CC2)cc1 [Compound 80], the “compound 48/80 lethality test in rats-ED50” value is reported as 0.04 mg/kg body weight.
